Assay results reported in patent US6806230B1, “Pyrimidine derivatives and herbicides containing them” (Kumiai Chemical Industry Co., Ltd., priority 1999, dated 2004).

These molecules were tested on green foxtail (Se) (assay: Test Example 2: herbicidal effects by upland soil treatment). Conditions: dose 100 g active ingredient per 10 ares, examined on the 21st day after treatment, standards of Table 44.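 Note: 0-5 growth inhibition grade; 5 = over 90%; 4 = 70-90%; 3 = 50-70%; 2 = 30-50%; 1 = 10-30%; 0 = under 10%.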
Assay type: in vivo
Method: In a 80 cm^2 plastic pot, upland soil was filled, and seeds of barnyard grass (Ec) and green foxtail (Se) were sown and covered with soil. A wettable powder prepared in accordance with Formulation Example 1 was diluted with water and uniformly applied to the soil surface by means of a small size spray at a rate of 100 l per 10 ares, so that the dose of the active ingredient would be 100 g per 10 ares. Thereafter, cultivation was carried out in a green house, and on the 21st day after the treatment, the herbicidal effects were examined in accordance with the standards as identified in Table 44.
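Throughout, for Herbicidal effect index, Eo: 0-5 growth inhibition grade; 5 = over 90%; 4 = 70-90%; 3 = 50-70%; 2 = 30-50%; 1 = 10-30%; 0 = under 10%.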
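Throughout, for Herbicidal effect index, Mo: 0-5 growth inhibition grade; 5 = over 90%; 4 = 70-90%; 3 = 50-70%; 2 = 30-50%; 1 = 10-30%; 0 = under 10%.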

Compound	herbicidal effects, Se (green foxtail)
CCN(C(=O)Cc1ccc(Cl)cc1)C(c1cncnc1C(F)F)C(C)C (racemic) [Compound 1-170]	5
CC(C)C(c1cncnc1C(F)(F)F)N(C)C(=O)Cc1ccc(Cl)cc1Cl (racemic) [Compound 1-124]	5
CC(C)C(c1cncnc1C(F)(F)F)N(C)C(=O)Cc1cc(F)cc(F)c1 (racemic) [Compound 1-167]	5
CC(C)C(c1cncnc1C(F)(F)Cl)N(C)C(=O)Sc1ccccc1 (racemic) [Compound 1-17]	4
CCc1ccc(CC(=O)N(C)C(c2cncnc2C(F)(F)F)C(C)C)cc1 (racemic) [Compound 1-67]	5
Cc1ccc(CC(=O)N(C)C(c2cncnc2C(F)(F)F)C(C)C)cc1Cl (racemic) [Compound 1-121]	4
CN(C(=O)Cc1ccccc1)C(c1cncnc1C(F)(F)F)C1CC1 (racemic) [Compound 1-34]	5
CC(C)C(c1cncnc1C(F)(F)Cl)N(C)C(=O)Nc1ccccc1 (racemic) [Compound 1-38]	4
Cc1ncncc1C(N(C)C(=O)Cc1ccc(Cl)cc1)C(C)(C)C (racemic) [Compound 1-161]	5
CN(C(=O)Cc1ccccc1)C(c1ccc(F)cc1)c1cncnc1C(F)(F)F (racemic) [1-217]	5
CCCN(C(=O)Cc1ccc(C)cc1)C(c1cncnc1C(F)(F)F)C(C)C (racemic) [Compound 1-62]	4

What follows are molecules tested on barnyard grass (Eo) (assay: Test Example 1: herbicidal effects by flooded paddy field treatment). Conditions: dose 100 g active ingredient per 10 ares, examined on the 21st day after treatment, standards of Table 44.
Assay type: in vivo
Design: herbicidal effects, Eo (barnyard grass):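 0-5 growth inhibition grade; 5 = over 90%; 4 = 70-90%; 3 = 50-70%; 2 = 30-50%; 1 = 10-30%; 0 = under 10%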
Method in brief: (§1)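 Seeds sown in puddled paddy soil and flooded to 3 cm. Next day, a water-diluted wettable powder was dripped onto the water surface at 100 g active ingredient per 10 ares. Plants were grown in a greenhouse, and herbicidal effect was scored against a rating standard 21 days after treatment.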

Compound	herbicidal effects, Eo (barnyard grass)
CCN(C(=O)Cc1ccc(Cl)cc1)C(c1cncnc1C(F)F)C(C)C (racemic) [Compound 1-170]	5
CC(C)C(c1cncnc1C(F)(F)F)N(C)C(=O)Cc1cc(F)cc(F)c1 (racemic) [Compound 1-167]	5
Cc1ncncc1C(N(C)C(=O)Cc1ccc(Cl)cc1)C(C)(C)C (racemic) [Compound 1-161]	5
CN(C(=O)Cc1ccccc1)C(c1ccc(F)cc1)c1cncnc1C(F)(F)F (racemic) [1-217]	5

Same assay, conditions: dose 100 gai/10a, examined on 21st day after treatment, index 0-5 per Table 44

Compound	Herbicidal effect index, Eo
CC(C)C(c1cncnc1C(F)(F)F)N(C)C(=O)Cc1ccc(Cl)cc1Cl (racemic) [Compound 1-124]	5
CC(C)C(c1cncnc1C(F)(F)Cl)N(C)C(=O)Sc1ccccc1 (racemic) [Compound 1-17]	5
CCc1ccc(CC(=O)N(C)C(c2cncnc2C(F)(F)F)C(C)C)cc1 (racemic) [Compound 1-67]	5
Cc1ccc(CC(=O)N(C)C(c2cncnc2C(F)(F)F)C(C)C)cc1Cl (racemic) [Compound 1-121]	5
CN(C(=O)Cc1ccccc1)C(c1cncnc1C(F)(F)F)C1CC1 (racemic) [Compound 1-34]	5
CC(C)C(c1cncnc1C(F)(F)Cl)N(C)C(=O)Nc1ccccc1 (racemic) [Compound 1-38]	5
CCCN(C(=O)Cc1ccc(C)cc1)C(c1cncnc1C(F)(F)F)C(C)C (racemic) [Compound 1-62]	5

Each molecule was assayed on rice (Or) (assay: Test Example 4: selectivity for a crop plant by flooded paddy field treatment). Conditions: rice transplanted at second leaf stage, dose 25 g active ingredient per 10 ares, examined on the 21st day after treatment.
Assay type: in vivo
Design: scale not given here
Method in brief: (§2)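 Paddled paddy soil in pots sown with barnyard grass and monochoria, with second-leaf-stage rice transplanted, under 3 cm of water. Next day a diluted wettable powder was dripped onto the water at 25 g active ingredient per 10 ares; effects scored on a rating scale 21 days later in a greenhouse.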

Or (effect on crop plant rice, index)	Compound
1	CC(C)C(c1cncnc1C(F)(F)Cl)N(C)C(=O)Sc1ccccc1 (racemic) [Compound 1-17]
1	CCc1ccc(CC(=O)N(C)C(c2cncnc2C(F)(F)F)C(C)C)cc1 (racemic) [Compound 1-67]
1	CN(C(=O)Cc1ccccc1)C(c1cncnc1C(F)(F)F)C1CC1 (racemic) [Compound 1-34]
0	CC(C)C(c1cncnc1C(F)(F)Cl)N(C)C(=O)Nc1ccccc1 (racemic) [Compound 1-38]
1	CCCN(C(=O)Cc1ccc(C)cc1)C(c1cncnc1C(F)(F)F)C(C)C (racemic) [Compound 1-62]

Same assay, conditions: rice transplanted at second leaf stage, dose 25 gai/10a, 21st day after treatment, index per Table 44

Compound	Or (herbicidal effect index on crop)
CCN(C(=O)Cc1ccc(Cl)cc1)C(c1cncnc1C(F)F)C(C)C (racemic) [Compound 1-170]	1
CC(C)C(c1cncnc1C(F)(F)F)N(C)C(=O)Cc1ccc(Cl)cc1Cl (racemic) [Compound 1-124]	0
CC(C)C(c1cncnc1C(F)(F)F)N(C)C(=O)Cc1cc(F)cc(F)c1 (racemic) [Compound 1-167]	1
Cc1ccc(CC(=O)N(C)C(c2cncnc2C(F)(F)F)C(C)C)cc1Cl (racemic) [Compound 1-121]	1
Cc1ncncc1C(N(C)C(=O)Cc1ccc(Cl)cc1)C(C)(C)C (racemic) [Compound 1-161]	0
CN(C(=O)Cc1ccccc1)C(c1ccc(F)cc1)c1cncnc1C(F)(F)F (racemic) [1-217]	1

The molecules below were run on monochoria (Mo) in the same assay as above. Conditions: dose 25 g active ingredient per 10 ares, examined on the 21st day after treatment.
Assay type: in vivo
Design: scale not given here
Method in brief: as §2

Compound	Mo (herbicidal effects, index)
CC(C)C(c1cncnc1C(F)(F)Cl)N(C)C(=O)Sc1ccccc1 (racemic) [Compound 1-17]	5
CCc1ccc(CC(=O)N(C)C(c2cncnc2C(F)(F)F)C(C)C)cc1 (racemic) [Compound 1-67]	5
CN(C(=O)Cc1ccccc1)C(c1cncnc1C(F)(F)F)C1CC1 (racemic) [Compound 1-34]	5
CC(C)C(c1cncnc1C(F)(F)Cl)N(C)C(=O)Nc1ccccc1 (racemic) [Compound 1-38]	5
CCCN(C(=O)Cc1ccc(C)cc1)C(c1cncnc1C(F)(F)F)C(C)C (racemic) [Compound 1-62]	5

Same assay, conditions: monochoria, dose 25 gai/10a, 21st day after treatment, index per Table 44

Compound	Mo (herbicidal effect index)
CCN(C(=O)Cc1ccc(Cl)cc1)C(c1cncnc1C(F)F)C(C)C (racemic) [Compound 1-170]	5
CC(C)C(c1cncnc1C(F)(F)F)N(C)C(=O)Cc1ccc(Cl)cc1Cl (racemic) [Compound 1-124]	5
CC(C)C(c1cncnc1C(F)(F)F)N(C)C(=O)Cc1cc(F)cc(F)c1 (racemic) [Compound 1-167]	5
Cc1ccc(CC(=O)N(C)C(c2cncnc2C(F)(F)F)C(C)C)cc1Cl (racemic) [Compound 1-121]	5
Cc1ncncc1C(N(C)C(=O)Cc1ccc(Cl)cc1)C(C)(C)C (racemic) [Compound 1-161]	5
CN(C(=O)Cc1ccccc1)C(c1ccc(F)cc1)c1cncnc1C(F)(F)F (racemic) [1-217]	5

These molecules were tested on barnyard grass (Eo) in the same assay as above. Conditions: barnyard grass, dose 25 gai/10a, 21st day after treatment, index per Table 44.
Assay type: in vivo
Design: scale not given here
Method in brief: as §2

Compound	Eo (herbicidal effect index)
CCN(C(=O)Cc1ccc(Cl)cc1)C(c1cncnc1C(F)F)C(C)C (racemic) [Compound 1-170]	5
CC(C)C(c1cncnc1C(F)(F)F)N(C)C(=O)Cc1ccc(Cl)cc1Cl (racemic) [Compound 1-124]	5
CC(C)C(c1cncnc1C(F)(F)F)N(C)C(=O)Cc1cc(F)cc(F)c1 (racemic) [Compound 1-167]	5
Cc1ccc(CC(=O)N(C)C(c2cncnc2C(F)(F)F)C(C)C)cc1Cl (racemic) [Compound 1-121]	5
Cc1ncncc1C(N(C)C(=O)Cc1ccc(Cl)cc1)C(C)(C)C (racemic) [Compound 1-161]	5
CN(C(=O)Cc1ccccc1)C(c1ccc(F)cc1)c1cncnc1C(F)(F)F (racemic) [1-217]	5

Same assay, conditions: dose 25 g active ingredient per 10 ares, examined on the 21st day after treatment

Compound	Eo (herbicidal effects, index)
CC(C)C(c1cncnc1C(F)(F)Cl)N(C)C(=O)Sc1ccccc1 (racemic) [Compound 1-17]	5
CCc1ccc(CC(=O)N(C)C(c2cncnc2C(F)(F)F)C(C)C)cc1 (racemic) [Compound 1-67]	5
CN(C(=O)Cc1ccccc1)C(c1cncnc1C(F)(F)F)C1CC1 (racemic) [Compound 1-34]	5
CC(C)C(c1cncnc1C(F)(F)Cl)N(C)C(=O)Nc1ccccc1 (racemic) [Compound 1-38]	5
CCCN(C(=O)Cc1ccc(C)cc1)C(c1cncnc1C(F)(F)F)C(C)C (racemic) [Compound 1-62]	5

Each molecule was assayed on barnyard grass (Ec) (assay: Test Example 2: herbicidal effects by upland soil treatment). Conditions: dose 100 g active ingredient per 10 ares, examined on the 21st day after treatment, standards of Table 44.
Assay type: in vivo
Design: scale not given here
Method in brief: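 Pre-emergence test: barnyard grass and green foxtail sown in upland soil, then soil surface sprayed with wettable-powder formulation at 100 g active ingredient per 10 ares (100 l per 10 ares). Grown in greenhouse; herbicidal effect scored on a rating scale 21 days after treatment.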

Compound	herbicidal effects, Ec (barnyard grass)
CCN(C(=O)Cc1ccc(Cl)cc1)C(c1cncnc1C(F)F)C(C)C (racemic) [Compound 1-170]	5
CC(C)C(c1cncnc1C(F)(F)F)N(C)C(=O)Cc1ccc(Cl)cc1Cl (racemic) [Compound 1-124]	5
CC(C)C(c1cncnc1C(F)(F)F)N(C)C(=O)Cc1cc(F)cc(F)c1 (racemic) [Compound 1-167]	5
CC(C)C(c1cncnc1C(F)(F)Cl)N(C)C(=O)Sc1ccccc1 (racemic) [Compound 1-17]	4
CCc1ccc(CC(=O)N(C)C(c2cncnc2C(F)(F)F)C(C)C)cc1 (racemic) [Compound 1-67]	5
Cc1ccc(CC(=O)N(C)C(c2cncnc2C(F)(F)F)C(C)C)cc1Cl (racemic) [Compound 1-121]	5
CN(C(=O)Cc1ccccc1)C(c1cncnc1C(F)(F)F)C1CC1 (racemic) [Compound 1-34]	5
CC(C)C(c1cncnc1C(F)(F)Cl)N(C)C(=O)Nc1ccccc1 (racemic) [Compound 1-38]	5
Cc1ncncc1C(N(C)C(=O)Cc1ccc(Cl)cc1)C(C)(C)C (racemic) [Compound 1-161]	5
CN(C(=O)Cc1ccccc1)C(c1ccc(F)cc1)c1cncnc1C(F)(F)F (racemic) [1-217]	5
CCCN(C(=O)Cc1ccc(C)cc1)C(c1cncnc1C(F)(F)F)C(C)C (racemic) [Compound 1-62]	4

The molecules below were run on monochoria (Mo) (assay: Test Example 1: herbicidal effects by flooded paddy field treatment). Conditions: dose 100 g active ingredient per 10 ares, examined on the 21st day after treatment, standards of Table 44.
Assay type: in vivo
Design: herbicidal effects, Mo (monochoria):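 0-5 growth inhibition grade; 5 = over 90%; 4 = 70-90%; 3 = 50-70%; 2 = 30-50%; 1 = 10-30%; 0 = under 10%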
Method in brief: as §1

Compound	herbicidal effects, Mo (monochoria)
CCN(C(=O)Cc1ccc(Cl)cc1)C(c1cncnc1C(F)F)C(C)C (racemic) [Compound 1-170]	5
CC(C)C(c1cncnc1C(F)(F)F)N(C)C(=O)Cc1cc(F)cc(F)c1 (racemic) [Compound 1-167]	5
Cc1ncncc1C(N(C)C(=O)Cc1ccc(Cl)cc1)C(C)(C)C (racemic) [Compound 1-161]	5
CN(C(=O)Cc1ccccc1)C(c1ccc(F)cc1)c1cncnc1C(F)(F)F (racemic) [1-217]	5

Same assay, conditions: dose 100 gai/10a, examined on 21st day after treatment, index 0-5 per Table 44

Compound	Herbicidal effect index, Mo
CC(C)C(c1cncnc1C(F)(F)F)N(C)C(=O)Cc1ccc(Cl)cc1Cl (racemic) [Compound 1-124]	5
CC(C)C(c1cncnc1C(F)(F)Cl)N(C)C(=O)Sc1ccccc1 (racemic) [Compound 1-17]	5
CCc1ccc(CC(=O)N(C)C(c2cncnc2C(F)(F)F)C(C)C)cc1 (racemic) [Compound 1-67]	5
Cc1ccc(CC(=O)N(C)C(c2cncnc2C(F)(F)F)C(C)C)cc1Cl (racemic) [Compound 1-121]	5
CN(C(=O)Cc1ccccc1)C(c1cncnc1C(F)(F)F)C1CC1 (racemic) [Compound 1-34]	5
CC(C)C(c1cncnc1C(F)(F)Cl)N(C)C(=O)Nc1ccccc1 (racemic) [Compound 1-38]	5
CCCN(C(=O)Cc1ccc(C)cc1)C(c1cncnc1C(F)(F)F)C(C)C (racemic) [Compound 1-62]	5
